The values that follow come from paper PMC6085350, “Small molecule inhibitors of RAS-effector protein interactions derived using an intracellular antibody fragment” (Nature Communications, 2018).

The subject of one assay is HT1080 cells (NRAS^Q61K). Briefly: Cell viability (CellTiterGlo), HT1080. As to conditions: for effect on cell viability: HT1080, 0–20 μM, up to 72 h; for IC50: Homo sapiens, HT-1080. The format is cell-based, human. Here is the method:
Fig. 5 Abd-7 results on RAS-dependent signalling pathways and cell viability. a, b DLD-1 (a) or H358 (b) cells were serum-starved for 24 h, incubated in mono-layer with Abd-7 in a range from 2, 5, 10 and 20 μM for 3 h and stimulated with EGF 10 min. Proteins were extracted and separated by SDS-PAGE and transferred to membranes for Western analysis with anti-pAKT, anti-pERK, anti-pan AKT and anti-pan ERK. Anti-cyclophilin B antibody was the loading control. Signal was developed using standard ECL. c–e Effects of compounds Abd-2, Abd-4, Abd-5, Abd-6, and Abd-7 on the viability of human cancer cells lines was assessed for a 2-D culture of DLD-1 (mutant KRAS^G13D) cells and HT1080 cells (mutant NRAS^Q61K). The cells were treated with a dose range from 0 μM to 20 μ and incubated for 72 h when cell viability was assessed using CellTitreGlo. […] Each experiment was repeated at least three times (a, b) and four times (c, d). Where error bars are presented, they correspond to mean values ± SD of biological repeats […]
Cancer cell lines were in seeded in ViewPlates-96 microplates (PerkinElmer). DLD-1 cells were plated at 10,000 cells per well and HT1080 cells at 7500 cells per well and cultured in DMEM, high glucose, GlutaMAX media containing 10% FBS at 37 °C in 5% CO2 atmosphere. Cells were cultured overnight and the compounds (dissolved in DMSO and diluted to 0.2% DMSO) were added to the cells at concentrations ranging from 0 to 20 μM. The cells were incubated under standard culture conditions for either 24, 48 or 72 h. Cell viability was as quantitated using the CellTiterGlo Luminescent Cell Viability Assay (Promega) according to the manufacturer’s instructions to measure ATP generated by metabolically active cells. Luminescent signals were measured using an Envision 2103 Multilabel Microplate Reader (PerkinElmer). The luminescence signals obtained from the compound-treated cells were normalized against the signal for DMSO-only treated cells. The IC50 values, calculated from the 48 and 72 h CellTiterGlo data, were generated by non-linear regression using the software GraphPad Prism 7.00 for windows (GraphPad Inc).
Supplementary Figure 7: The effect of Abd compounds on the viability of cancer cells The effect of the chemical series on the viability of human cancer cells lines DLD -1 (a colorectal cancer cell line with mutant KRAS
) and HT1080 (a fibrosarcoma cell line with
). The cells were treated with a dose range from […] of either
Abd-2, Abd-4, Abd-5, Abd-6 and Abd-7 and incubated for 24 or 48 hours. Cell viability was assessed using CellTitreGlo . In each case, the data are normalized to cells treated with DMSO only. Panels a and b are DLD-1 viability and panels c and d are HT1080 viability.
The IC50 for Abd-7 at 48 & 72 […]
hours are shown in panel f. Each experiment was repeated at least four times ( a to d).
Where error bars are presented, they correspond to mean values ± SD of biological repeats.
(1 picture or pasted object on this page, not shown here)

The next assay deals with T1, GST-KRASG12V-GppNHp (Homo sapiens, UniProt P01116, G12V).
T1 construct: made in house; host or cells: E. coli (pGEX-2T; strain named only for the HRAS plasmids)
Briefly: 1H CPMG NMR protein titration for Kd. The format is binding. As to conditions: for Kd: CPMG NMR titration, 55 μM compound, read-out: Kd (binding affinity). Here is the method: Typical experimental parameters for Carr–Purcell-Meiboom-Gill (CPMG) NMR spectroscopy were the following: total echo time, 40 ms; relaxation delay, 2 s; and number of transients, […][53]. The PROJECT-CPMG sequence (90°x-[Ƭ-180°y-Ƭ- 90°y-Ƭ-180°y-Ƭ]n-acq) was applied. Water suppression was achieved by pre-saturation. Prior to Fourier transformation, the data were multiplied with an exponential function with 3-Hz line broadening. The CPMG experiments were conducted at a ^1H frequency of 700 MHz using a Bruker Avance with 5 mm inverse TCI 1 H/13 C/15 N cryo-probe. All experiments were conducted at 298 K and lapsed 128 scans. Furthermore, 3 mm diameter NMR tubes with a sample volume of 200 µl were used in all experiments. Solutions were buffered using a D2O PBS buffer corrected to pH 7.4. The sample preparation is exemplified as follow: with 5 µM of protein (PBS pH 7.4, 5 mM MgCl2), the compound (1.1 µl of a 10 mM (55 uM) solution in DMSO-d6) was added to an eppendorf before sequential addition of the D2O 10 mM PBS, 5 mM MgCl2 buffer adjusted to pH 7.4 (194.0 µl) and protein (4.9 µl, 205 µM, the protein is in an H2O-based buffer for stability reason). The resulting solution was vortexed to be fully mixed and transferred to a 3 mm NMR tube before the run. Negative controls (compound alone, without the protein) were prepared in a similar manner, in order to obtain an end volume of 200 µl. CPMG protein titration experiments were carried out at a fixed compound concentration and a variable protein concentration. It was estimated that 55 μM solution of the compound was optimum for a good CPMG; protein was titrate increasingly from 0 µM until the signal of the compound was undetected in the proton NMR. The integrations of the protons acquired were compared to the reference (compound alone, 0 µM of protein) in order to obtain a percentage of decrease for each concentration of protein. Three different proton signals were used and a mean was calculated for each run. Each protein concentration was run in triplicate and a mean was calculated for each concentration. Where error bars are presented, they correspond to mean values ± SD of experimental repeats. Concentration and percentage of decrease were plotted and Kd fitting was run on the generated curve using Origin® with the following function: A*(1/(2*C))*((B + x + C)-sqrt(((B + x + C)^2)-(4*x*C))) where A is the maximum % of inhibition (i.e. 100), B is the Kd and C is the concentration of the compound which should not be fixed in the Origin® Equation due to potential variations in compound solubility.
Supplementary Figure 6: Abd-7 Binding in WaterLOGSy and Kd calculations in CPMG WaterLOGSY and CPMG NMR orthogonal analysis of Abd-5 (panel a, b), Abd-6 (c, d), and Abd-7 (e, f) with GST-KRASG12V-GppNHp. For each waterLOGSY profile, the proton NMR spectrum of the compound is shown together the spectra of the compound after incubation with the KRAS (the NOE transfers occurs when the compounds displace those waters upon binding to the protein). The Kd of interaction of the compounds come from fitting a binding curve (right of panels b, d, f) of a CPMG titration (shown on the left of panels b, d, f). The calculated Kd is shown for each compound.
(MW), Kd, Solubility and ligand efficiency (LE). Each experiment was repeated at least three times. Where error bars are presented, they correspond to mean values ± SD of experimental repeats (b, d and f).

The term Kd denotes the equilibrium constant for the complex coming apart. What is called IC50 is the point on the concentration scale where inhibition reaches its midpoint.

Structures are written as SMILES. “And” between values parts separate entries of the source, which are not always exact repeats. Equal entries are not always repeated. “Also recorded” adds a separate entry of the source. Where two headings read alike, the source gives them in different places.

For the compound `O=C(NCC1COc2ccccc2O1)c1ccco1` (stereo not drawn) [Abd-2], the “effect on cell viability” value with HT1080 cells (NRAS^Q61K) was “no effect on cell viability; also recorded: had not effect”.
For `COc1cccc(-c2cccc3c2OC(CNC(=O)c2ccc(OCCN(C)C)cc2)CO3)n1` (stereo not drawn) [Abd-5], the “effect on cell viability” value with HT1080 cells (NRAS^Q61K) is reported as “have an effect on the viability”. Also, at GST-KRASG12V-GppNHp, the ligand efficiency is recorded as roughly 0.3 and the dissociation constant (Kd) amounted to 0.22 µM.
With `COc1nc(-c2cccc3c2O[C@H](CNC(=O)C2CCOCC2)CO3)ccc1Nc1cccc(CN(C)C)c1` [Abd-6], the “effect on cell viability” value in the assay on HT1080 cells (NRAS^Q61K) is recorded as “have an effect on the viability”. At GST-KRASG12V-GppNHp, the ligand efficiency is given as roughly 0.3 and the Kd is 0.038 µM.
With `COc1nc(-c2cccc3c2OCCO3)ccc1Nc1ccc(CN(C)C)cc1` [Abd-7], the IC50 with HT1080 cells (NRAS^Q61K) (HT1080, 48 h, Supplementary Fig. 7f, read-out: HT1080 IC50 48h) is 9.4 µM; in the assay on HT1080 cells (NRAS^Q61K) (HT1080, 48 h as printed in discussion, read-out: IC50 cell viability), roughly 10 µM; in the assay on HT1080 cells (NRAS^Q61K) (HT1080, 72 h, read-out: IC50 cell viability) it was 10 µM. The ligand efficiency on GST-KRASG12V-GppNHp was ~0.3 and 0.34. In addition, the Kd on GST-KRASG12V-GppNHp stood at 0.051 µM.
